Results reported in ChEMBL document CHEMBL1201862, “PubChem BioAssay data set” (2004).
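Five compound concentrations were applied to cells in 96-well plates for 48 hours; endpoints were derived by simple linear interpolation of the resulting dose-response curve. GI50 = concentration required for 50% inhibition of growth.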 Activity calls are given as the source filed them. Cut-off read from the data, not from the text of the source: active = GI50 up to about 1.1 µM and inactive = higher.

Key:
Assay in all cases: NCI-60 cell line screen, 48 h
NCI-H522 = system: NCI-H522
DMS-273 = system: DMS-273
SN12C = system: SN12C
U-251 = system: U-251
TK-10 = system: TK-10
NCI-H226 = system: NCI-H226
786-0 = system: 786-0
SK-MEL-28 = system: SK-MEL-28
HCT-15 = system: HCT-15
OVCAR-4 = system: OVCAR-4
OVCAR-5 = system: OVCAR-5
KM-20L2 = system: KM-20L2
HOP-92 = system: HOP-92
SNB-78 = system: SNB-78
NCI-H460 = system: NCI-H460
OVCAR-8 = system: OVCAR-8
A498 = system: A498
IGROV-1 = system: IGROV-1
SNB-19 = system: SNB-19
CCRF-CEM = system: CCRF-CEM
MOLT-4 = system: MOLT-4
OVCAR-3 = system: OVCAR-3
SW-620 = system: SW-620
M14 = system: M14
SK-MEL-5 = system: SK-MEL-5
A549 = system: A549
UACC-257 = system: UACC-257
ACHN = system: ACHN
RPMI-8226 = system: RPMI-8226
SF-295 = system: SF-295
HT-29 = system: HT-29
HOP-62 = system: HOP-62
SK-MEL-2 = system: SK-MEL-2
UO-31 = system: UO-31
COLO 205 = system: COLO 205
RXF 393 = system: RXF 393
DMS-114 = system: DMS-114
HL-60 = system: HL-60
DLD-1 = system: DLD-1
LOX IMVI = system: LOX IMVI
SR = system: SR
UACC-62 = system: UACC-62
HCT-116 = system: HCT-116
SF-539 = system: SF-539
Malme-3M = system: Malme-3M
XF498 = system: XF498
SK-OV-3 = system: SK-OV-3
SF-268 = system: SF-268
EKVX = system: EKVX
SNB-75 = system: SNB-75
HCC 2998 = system: HCC 2998
M19-MEL = system: M19-MEL
NCI-H23 = system: NCI-H23
LXFL 529 = system: LXFL 529
K562 = system: K562
HOP-18 = system: HOP-18
CAKI-1 = system: CAKI-1
KM12 = system: KM12

In the case of `O=C1OC(c2ccccc2)=N/C1=C/NC(Cc1c[nH]cn1)C(=O)O` (configuration not stated), the GI50 (NCI-H522) is reported as > 100 µM (inactive), the GI50 (DMS-273) is reported as > 100 µM (inactive) and the GI50 (SN12C) is reported as > 100 µM (inactive). For the same compound, the GI50 (U-251) was > 100 µM (inactive), the GI50 (TK-10) was > 100 µM (inactive) and the GI50 (NCI-H226) was > 100 µM (inactive). The GI50 (786-0) was > 100 µM (inactive), the GI50 (SK-MEL-28) was > 100 µM (inactive) and the GI50 (HCT-15) was > 100 µM. The GI50 (OVCAR-4) was > 100 µM (inactive), the GI50 (OVCAR-5) was > 100 µM (inactive) and the GI50 (KM-20L2) was > 100 µM (inactive). The GI50 (HOP-92) was > 100 µM (inactive), the GI50 (SNB-78) was > 100 µM (inactive) and the GI50 (NCI-H460) was > 100 µM (inactive). The GI50 (OVCAR-8) was > 100 µM (inactive), the GI50 (A498) was > 100 µM (inactive) and the GI50 (IGROV-1) was > 100 µM (inactive). The GI50 (SNB-19) was > 100 µM (inactive), the GI50 (CCRF-CEM) was > 100 µM (inactive) and the GI50 (MOLT-4) was > 100 µM (inactive). For the same compound, the GI50 (OVCAR-3) was > 100 µM (inactive), the GI50 (SW-620) was > 100 µM (inactive) and the GI50 (M14) was > 100 µM (inactive). The GI50 (SK-MEL-5) was > 100 µM (inactive), the GI50 (A549) was > 100 µM (inactive) and the GI50 (UACC-257) was > 100 µM (inactive). For the same compound, the GI50 (ACHN) was > 100 µM (inactive), the GI50 (RPMI-8226) was > 100 µM (inactive) and the GI50 (SF-295) was > 100 µM (inactive). The GI50 (HT-29) was > 100 µM (inactive), the GI50 (HOP-62) was > 100 µM (inactive) and the GI50 (SK-MEL-2) was > 100 µM (inactive). For the same compound, the GI50 (UO-31) was > 100 µM (inactive), the GI50 (COLO 205) was > 100 µM (inactive) and the GI50 (RXF 393) was > 100 µM (inactive). The GI50 (DMS-114) was > 100 µM (inactive), the GI50 (HL-60) was > 100 µM (inactive) and the GI50 (DLD-1) was > 100 µM (inactive). For the same compound, the GI50 (LOX IMVI) was > 100 µM (inactive), the GI50 (SR) was > 100 µM (inactive) and the GI50 (UACC-62) was > 100 µM (inactive). The GI50 (HCT-116) was > 100 µM (inactive), the GI50 (SF-539) was > 100 µM (inactive) and the GI50 (Malme-3M) was > 100 µM (inactive). The GI50 (XF498) was > 100 µM (inactive), the GI50 (SK-OV-3) was > 100 µM (inactive) and the GI50 (SF-268) was > 100 µM (inactive). The GI50 (EKVX) was > 100 µM (inactive), the GI50 (SNB-75) was > 100 µM (inactive) and the GI50 (HCC 2998) was > 100 µM (inactive). The GI50 (M19-MEL) was > 100 µM (inactive), the GI50 (NCI-H23) was > 100 µM (inactive) and the GI50 (LXFL 529) was > 100 µM (inactive). The GI50 (K562) was > 100 µM (inactive).

With `Cc1cc2c(C)nn(Cc3ccc(Cl)cc3Cl)c2c(C#N)c1C` the GI50 (DMS-273) was > 100 µM (inactive), the GI50 (SN12C) was > 100 µM (inactive) and the GI50 (U-251) was > 100 µM (inactive). For the same compound, the GI50 (TK-10) was > 100 µM (inactive), the GI50 (NCI-H226) was > 100 µM (inactive) and the GI50 (786-0) was > 100 µM (inactive). For the same compound, the GI50 (SK-MEL-28) was > 100 µM (inactive), the GI50 (HCT-15) was > 100 µM and the GI50 (OVCAR-5) was > 100 µM (inactive). For the same compound, the GI50 (HOP-18) was > 100 µM (inactive), the GI50 (KM-20L2) was > 100 µM (inactive) and the GI50 (HOP-92) was 35.9 µM (inactive). For the same compound, the GI50 (SNB-78) was > 100 µM (inactive), the GI50 (NCI-H460) was 79.4 µM (inactive) and the GI50 (OVCAR-8) was > 100 µM (inactive). For the same compound, the GI50 (IGROV-1) was > 100 µM (inactive), the GI50 (SNB-19) was > 100 µM (inactive) and the GI50 (CCRF-CEM) was > 100 µM (inactive). For the same compound, the GI50 (MOLT-4) was > 100 µM (inactive), the GI50 (OVCAR-3) was > 100 µM (inactive) and the GI50 (SW-620) was > 100 µM (inactive). The GI50 (A549) was 86.3 µM (inactive), the GI50 (UACC-257) was 37.8 µM (inactive) and the GI50 (ACHN) was > 100 µM (inactive). The GI50 (RPMI-8226) was > 100 µM (inactive), the GI50 (SF-295) was 50.4 µM (inactive) and the GI50 (HT-29) was 78.5 µM (inactive). For the same compound, the GI50 (HOP-62) was > 100 µM (inactive), the GI50 (SK-MEL-2) was > 100 µM (inactive) and the GI50 (UO-31) was > 100 µM (inactive). The GI50 (RXF 393) was 67 µM (inactive), the GI50 (HL-60) was > 100 µM (inactive) and the GI50 (DLD-1) was > 100 µM (inactive). For the same compound, the GI50 (LOX IMVI) was > 100 µM (inactive), the GI50 (SR) was > 100 µM (inactive) and the GI50 (UACC-62) was > 100 µM (inactive). The GI50 (HCT-116) was 69.7 µM (inactive), the GI50 (SF-539) was > 100 µM (inactive) and the GI50 (Malme-3M) was > 100 µM (inactive). The GI50 (XF498) was 29.1 µM (inactive), the GI50 (SK-OV-3) was > 100 µM (inactive) and the GI50 (SF-268) was > 100 µM (inactive). The GI50 (EKVX) was > 100 µM (inactive), the GI50 (SNB-75) was 89.9 µM (inactive) and the GI50 (HCC 2998) was > 100 µM (inactive). The GI50 (M19-MEL) was > 100 µM (inactive), the GI50 (NCI-H23) was > 100 µM (inactive) and the GI50 (LXFL 529) was 82.4 µM (inactive).

For `CC(C)(C)[Si](C)(C)OC1C(=O)C[C@H]2CCCC[C@@H]12` (some centres not stated), the GI50 (DMS-273) was > 100 µM (inactive), the GI50 (SN12C) was > 100 µM (inactive) and the GI50 (U-251) was > 100 µM (inactive). For the same compound, the GI50 (TK-10) was > 100 µM (inactive), the GI50 (786-0) was > 100 µM (inactive) and the GI50 (HCT-15) was > 100 µM. The GI50 (OVCAR-4) was > 100 µM (inactive), the GI50 (OVCAR-5) was > 100 µM (inactive) and the GI50 (HOP-18) was > 100 µM (inactive). For the same compound, the GI50 (KM-20L2) was > 100 µM (inactive), the GI50 (HOP-92) was 20.2 µM (inactive) and the GI50 (SNB-78) was > 100 µM (inactive). The GI50 (NCI-H460) was > 100 µM (inactive), the GI50 (OVCAR-8) was > 100 µM (inactive) and the GI50 (A498) was > 100 µM (inactive). For the same compound, the GI50 (IGROV-1) was > 100 µM (inactive), the GI50 (SNB-19) was > 100 µM (inactive) and the GI50 (CCRF-CEM) was > 100 µM (inactive). For the same compound, the GI50 (MOLT-4) was > 100 µM (inactive), the GI50 (OVCAR-3) was > 100 µM (inactive) and the GI50 (SW-620) was > 100 µM (inactive). The GI50 (M14) was > 100 µM (inactive), the GI50 (SK-MEL-5) was > 100 µM (inactive) and the GI50 (A549) was > 100 µM (inactive). For the same compound, the GI50 (UACC-257) was > 100 µM (inactive), the GI50 (ACHN) was > 100 µM (inactive) and the GI50 (RPMI-8226) was > 100 µM (inactive). For the same compound, the GI50 (SF-295) was > 100 µM (inactive), the GI50 (HT-29) was > 100 µM (inactive) and the GI50 (HOP-62) was > 100 µM (inactive). For the same compound, the GI50 (CAKI-1) was > 100 µM (inactive), the GI50 (SK-MEL-2) was > 100 µM (inactive) and the GI50 (UO-31) was > 100 µM (inactive). For the same compound, the GI50 (COLO 205) was > 100 µM (inactive), the GI50 (RXF 393) was > 100 µM (inactive) and the GI50 (DMS-114) was > 100 µM (inactive). For the same compound, the GI50 (HL-60) was 48.4 µM (inactive), the GI50 (DLD-1) was > 100 µM (inactive) and the GI50 (LOX IMVI) was > 100 µM (inactive). For the same compound, the GI50 (UACC-62) was > 100 µM (inactive), the GI50 (HCT-116) was > 100 µM (inactive) and the GI50 (SF-539) was > 100 µM (inactive). For the same compound, the GI50 (KM12) was > 100 µM (inactive), the GI50 (Malme-3M) was > 100 µM (inactive) and the GI50 (XF498) was > 100 µM (inactive). For the same compound, the GI50 (SK-OV-3) was > 100 µM (inactive), the GI50 (SF-268) was > 100 µM (inactive) and the GI50 (EKVX) was > 100 µM (inactive). For the same compound, the GI50 (SNB-75) was > 100 µM (inactive), the GI50 (HCC 2998) was > 100 µM (inactive) and the GI50 (M19-MEL) was 87.9 µM (inactive). For the same compound, the GI50 (NCI-H23) was > 100 µM (inactive), the GI50 (LXFL 529) was > 100 µM (inactive) and the GI50 (K562) was > 100 µM (inactive).
